Square brackets hold non-standard residues; d marks the D form. Peptide text beside a SMILES is read from it. * marks the point of attachment. X1 = CN1/C(=C/C=C/C=C/C2=[N+](CCCCCC(=O)*)c3ccc(S(=O)(=O)[O-])cc3C2(C)C)C(C)(C)c2cc(S(=O)(=O)O)ccc21; Hyp = O=C(O)[C@@H]1C[C@@H](O)CN1; Nlys = NCCCCNCC(=O)O; Ahx = NCCCCCC(=O)O
Experiments:
[1] = test system: human umbilical vein endothelial cells (HUVECs); assay: CCK-8 cell viability assay on HUVECs; assay type: cell-based; settings: 0-40 µM, 24 h, n = 6 wells
Method: The cultures were maintained under standard conditions of 37 °C and 5% CO2. Chondrocytes collected from the articular cartilage of Sprague‐Dawley (SD) rats (purchased from Jennio Biotech, JNO‐720) were cultured in DMEM medium (Precell, PM150210). Human venous endothelial cells (HUVECs, purchased from iCell, iCell‐h110) were cultured in HUVEC medium (iCell, iCell‐h110‐001b). Both cells were seeded in 96‐well plates at a density of 5000 cells per well. The medium was supplemented with 10% fetal bovine serum (FBS, Precell, 164210) and penicillin‐streptomycin (1:100 diluted from a 100× stock solution, ThermoFisher, 15140122) to support cell growth and prevent bacterial contamination. When cell confluency reached 80%, peptidomimetic probes at increasing concentrations ranging from 0 to 40 µM were added to the cell culture medium (n = 4 wells for chondrocytes, n = 6 wells for HUVECs; blank control group: 0 µM; cells cultured without probe). Following 24 h (or 72 h) of incubation, the medium was removed, and the cells were rinsed three times with 1× PBS buffer. Cell viability was assessed using the CCK‐8 assay kit (GLPBIO, GK10001−5) according to the manufacturer's instructions. After further incubation for 4 h, the optical density (OD) of the CCK‐8 solution was measured at 450 nm using a microplate reader (PerkinElmer, EnVision). For live‐dead cell staining, rat chondrocytes (5000 cells per well seeded, n = 4 wells per group) were cultured for 24 h in medium (without fetal bovine serum) containing 40 µM of each peptidomimetic probe in a 96‐well plate. […] The fluorescence images were obtained using an EVOS M7000 imaging system (Light cubes: GFP and RFP, Objective: 10×). A microscopic image was taken from the live (Calcein AM) staining of each well, and the total fluorescence signals were quantified for each image. The mean fluorescence level of each probe's group was normalized to the blank control group to estimate the relative cell viability. […] The fluorescence intensity of each well was measured by the microplate reader (Ex / Em: 620 /662 nm). […]

cartilage = assay: In vivo and ex vivo fluorescence imaging of cartilage uptake and retention in nude mice; parameters: species or system mouse
Text: All procedures for mouse maintenance and experiments strictly followed the policy of the Experimental Animal Ethics Committee of the Fifth Affiliated Hospital of Sun Yat‐sen University (protocol numbers: 00361, 00436). Balb/c nu mice (male, 10‐18 weeks old) were used for the general in vivo imaging experiments (Figure 3c–f; Figures S10–S14, Supporting Information). For Figure 3g,h and Figure S16 (Supporting Information), neonatal Balb/c mice (7 days old) were used. Female Balb/c mice (74 weeks old versus 12 weeks old) were used in the aged joint imaging experiment reported in Figure 4a–c and Figure S17 (Supporting Information). The RA model was made using female Balb/c mice (6‐8 weeks old) by intraperitoneal injection of an anti‐collagen antibody cocktail (1.5 mg per mouse; Chondrex, 53100) followed by selective subcutaneous injection of lipopolysaccharide (LPS, 12.5 µg per mouse, Chondrex, 53100) into the left hind paw three days later.^[ [30] ^] C57BL/6J mice (male, 6–8 weeks old) were used for the biocompatibility tests (Figures S23–S25, Supporting Information).
Typically, the fluorescence peptides or peptoids were prepared at a dose of 1 nmol (10 µM in 100 µL of 1× PBS buffer) and injected into the tail vein of each mouse 2 h prior to fluorescence imaging with an IVIS Spectrum imager (PerkinElmer Lumina III). For Figure 4, Figures S17 and S18 (Supporting Information) (joint aging and RA) and Figure S27 (Supporting Information), 2 nmol of Cy5‐(NlysO)7 (20 µM in 100 µL of 1× PBS buffer) were i.v. administered to each mouse. For 1‐week‐old neonatal mice, 1 nmol of Cy5‐(NlysO)7 (20 µM in 50 µL of 1× PBS buffer) was intravenously injected into each mouse. All in vivo imaging was performed 2 h post probe injection with the IVIS Spectrum imager (PerkinElmer, fluorescence: ex/em: 620/670 nm, exposure: 1 s, bing: 4, F/Stop: 2; field of view: A/B/C/Z). Mice were anesthesia with 3% isoflurane (RWD, R510‐22‐10) during image acquisition. Hair in the knee areas was removed before fluorescence imaging for mice in Figure 4a and Figure S17 (Supporting Information). The mice were euthanized following the final image acquisition and occasionally imaged again after skin and organ removal. Next, the airways, ankles, ears, paws, knees, tails, spines, and chest ribs were collected, imaged, and saved for subsequent histology analysis. All acquired fluorescence images were analyzed using the Living Image software (PerkinElmer). The fluorescence signal from each specimen was measured by quantifying the average radiation efficiency within the selected oval‐shaped regions‐of‐interest.
For the cartilage retention experiments (Figures S11 and S12, Supporting Information), Cy5‐(NlysO)7 (10 µM in 100 µL of 1× PBS buffer) was administered via tail vein to four male Balb/c nu mice (10 weeks old) at 2, 24, 48, and 96 h respectively, prior to fluorescence imaging using an IVIS Spectrum imaging system (ex/em: 620/670 nm, exposure: 1 s, bing: 4, F/Stop: 2). Following euthanasia, their cartilaginous tissues were harvested and imaged. The fluorescence images were analyzed and quantified as described above.

SMILES | cytotoxicity to HUVECs (CCK-8), in words [1] | cytotoxicity to HUVECs (CCK-8), in words ([1]; listed as Cy5-(NlysO)7) | in vivo retention in joints and ribs compared to peptide sequences Cy5-(GKO)7 and Cy5-R8 (cartilage; 1 nmol i.v., 0-96 h) | fluorescence in cartilage-rich tissues (knee joints, ribs) 2-96 h post-injection (cartilage; 1 nmol i.v., imaged at 2, 24, 48, 96 h) | time post-injection that in vivo signals in knee joints and thoracic costal cartilage remained detectable (cartilage; 1 nmol tail-vein injection, monitored over 96 h)
CN1/C(=C/C=C/C=C/C2=[N+](CCCCCC(=O)NCCCCCC(=O)N(CCCCN)CC(=O)N3C[C@H](O)C[C@H]3C(=O)N(CCCCN)CC(=O)N3C[C@H](O)C[C@H]3C(=O)N(CCCCN)CC(=O)N3C[C@H](O)C[C@H]3C(=O)N(CCCCN)CC(=O)N3C[C@H](O)C[C@H]3C(=O)N(CCCCN)CC(=O)N3C[C@H](O)C[C@H]3C(=O)N(CCCCN)CC(=O)N3C[C@H](O)C[C@H]3C(=O)N(CCCCN)CC(=O)N3C[C@H](O)C[C@H]3C(N)=O)c3ccc(S(=O)(=O)[O-])cc3C2(C)C)C(C)(C)c2cc(S(=O)(=O)O)ccc21 [Cy5‐(NlysO)7] ({X1-Ahx}-[Nlys][Hyp][Nlys][Hyp][Nlys][Hyp][Nlys][Hyp][Nlys][Hyp][Nlys][Hyp][Nlys][Hyp]-NH2) | did not exhibit cytotoxicity | no apparent cytotoxicity at the tested concentrations | stronger retention in the joints and ribs in vivo | at 48 h but not 96 h | 
CN1/C(=C/C=C/C=C/C2=[N+](CCCCCC(=O)NCCCCCC(=O)N[C@@H](CCCNC(=N)N)C(=O)N[C@@H](CCCNC(=N)N)C(=O)N[C@@H](CCCNC(=N)N)C(=O)N[C@@H](CCCNC(=N)N)C(=O)N[C@@H](CCCNC(=N)N)C(=O)N[C@@H](CCCNC(=N)N)C(=O)N[C@@H](CCCNC(=N)N)C(=O)N[C@@H](CCCNC(=N)N)C(N)=O)c3ccc(S(=O)(=O)[O-])cc3C2(C)C)C(C)(C)c2cc(S(=O)(=O)O)ccc21 [Cy5‐R8, reference compound] | significant cytotoxicity |  |  |  | difficult to find after 2 h post‐injection

Source: article PMC12631873 (Advanced Science, 2025)
